Common to all, as to experiment: biochemical
Holding throughout (parameters): DiscoverX KinomeScan competition binding assay across human kinases; per cent of control at 10 and 100 uM

The target in one experiment is LTK (Homo sapiens, UniProt P29376). As to conditions: competition binding, % of control; read-out: Percent Control (100 uM Levosimendan). The method in brief:
(§1)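 KinomeScan competition binding was run across a human kinase panel at 10 μM and 100 μM levosimendan. Results are %control = (test − positive control)/(negative control − positive control) × 100.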

Another experiment addresses CSNK2A2 (Homo sapiens, UniProt P19784). To be noted: competition binding, % of control; read-out: Percent Control (100 uM Levosimendan). The method in brief: as §1
For the next experiment, the target named is TIE1 (Homo sapiens, UniProt P35590). As to conditions: competition binding, % of control; read-out: Percent Control (100 uM Levosimendan). In short, it runs like this:
as §1

In another experiment the target is MAP4K4 (Homo sapiens, UniProt O95819). To be noted: competition binding, % of control; read-out: Percent Control (100 uM Levosimendan). In short, it runs like this:
as §1

The target in the next experiment is FLT3-autoinhibited (Homo sapiens, UniProt P36888). To be noted: competition binding, % of control; read-out: Percent Control (100 uM Levosimendan). The method in brief:
as §1

The next experiment addresses MAK (Homo sapiens, UniProt P20794). As to conditions: competition binding, % of control; read-out: Percent Control (100 uM Levosimendan). The method in brief:
as §1

In experiment [1] the target is T1, RPS6KA4(Kin.Dom.2-C-terminal) (Homo sapiens, UniProt O75676).
T1 construct: Kin.Dom.2-C-terminal
As to conditions: competition binding, % of control; read-out: Percent Control (100 uM Levosimendan). In short, it runs like this: as §1

The next experiment addresses DYRK2 (Homo sapiens, UniProt Q92630). To be noted: competition binding, % of control; read-out: Percent Control (100 uM Levosimendan). In short, it runs like this:
as §1

In a further experiment the target is EPHB3 (Homo sapiens, UniProt P54753). As to conditions: competition binding, % of control; read-out: Percent Control (100 uM Levosimendan). In short, it runs like this: as §1
EPHB3, sequence (P54753 whole entry): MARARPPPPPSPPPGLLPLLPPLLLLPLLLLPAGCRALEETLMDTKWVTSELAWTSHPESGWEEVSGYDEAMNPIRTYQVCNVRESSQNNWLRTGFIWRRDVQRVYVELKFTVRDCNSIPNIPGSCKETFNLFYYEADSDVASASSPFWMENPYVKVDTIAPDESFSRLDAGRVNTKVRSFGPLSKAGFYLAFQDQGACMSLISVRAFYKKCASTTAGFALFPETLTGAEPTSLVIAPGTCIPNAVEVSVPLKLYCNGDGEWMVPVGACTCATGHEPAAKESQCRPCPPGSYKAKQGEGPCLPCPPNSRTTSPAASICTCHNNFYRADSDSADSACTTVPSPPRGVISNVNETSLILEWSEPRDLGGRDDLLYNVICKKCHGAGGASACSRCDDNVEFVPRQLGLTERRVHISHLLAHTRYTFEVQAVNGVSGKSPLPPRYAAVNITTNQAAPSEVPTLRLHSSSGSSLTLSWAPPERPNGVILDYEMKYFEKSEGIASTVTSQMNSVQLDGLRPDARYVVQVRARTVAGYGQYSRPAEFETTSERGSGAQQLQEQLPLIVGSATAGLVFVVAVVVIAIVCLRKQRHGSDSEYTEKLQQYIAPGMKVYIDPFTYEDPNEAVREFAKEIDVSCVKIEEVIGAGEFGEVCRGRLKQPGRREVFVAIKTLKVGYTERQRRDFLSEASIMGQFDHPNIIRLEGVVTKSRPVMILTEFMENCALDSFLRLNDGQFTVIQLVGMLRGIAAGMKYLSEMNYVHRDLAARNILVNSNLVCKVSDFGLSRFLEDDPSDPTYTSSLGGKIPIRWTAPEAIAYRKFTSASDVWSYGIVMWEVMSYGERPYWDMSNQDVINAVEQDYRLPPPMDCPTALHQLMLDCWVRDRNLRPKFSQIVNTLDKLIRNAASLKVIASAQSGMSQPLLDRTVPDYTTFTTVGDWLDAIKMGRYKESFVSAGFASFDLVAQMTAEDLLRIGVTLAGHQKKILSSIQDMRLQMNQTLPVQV
The target in a further experiment is T2, MST3 (Homo sapiens, UniProt Q9Y6E0).
T2 construct: gene STK24
As to conditions: competition binding, % of control; read-out: Percent Control (100 uM Levosimendan). The method in brief:
as §1

The target of another experiment is T3, p38-beta (Homo sapiens, UniProt Q15759).
T3 construct: gene MAPK11
T3 sequence (Q15759 whole entry): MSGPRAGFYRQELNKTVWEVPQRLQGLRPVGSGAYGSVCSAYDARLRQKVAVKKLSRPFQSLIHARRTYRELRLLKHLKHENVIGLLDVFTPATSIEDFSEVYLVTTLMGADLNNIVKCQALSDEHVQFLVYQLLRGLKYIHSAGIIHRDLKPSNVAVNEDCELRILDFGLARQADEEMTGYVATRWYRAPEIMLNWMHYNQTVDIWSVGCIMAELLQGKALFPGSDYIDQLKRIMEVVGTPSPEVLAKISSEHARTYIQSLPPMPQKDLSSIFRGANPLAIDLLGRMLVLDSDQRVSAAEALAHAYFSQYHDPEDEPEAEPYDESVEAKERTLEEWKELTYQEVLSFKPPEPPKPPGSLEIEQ
As to conditions: competition binding, % of control; read-out: Percent Control (100 uM Levosimendan). The method in brief: as §1

The next experiment concerns the target T4, PKAC-alpha (Homo sapiens, UniProt P17612).
T4 construct: gene PRKACA
To be noted: competition binding, % of control; read-out: Percent Control (100 uM Levosimendan). In short, it runs like this:
as §1

A further experiment deals with T5, ERK4 (Homo sapiens, UniProt P31152).
T5 construct: gene MAPK4
As to conditions: competition binding, % of control; read-out: Percent Control (100 uM Levosimendan). In short, it runs like this: as §1

The next experiment has as its target PKN2 (Homo sapiens, UniProt Q16513). As to conditions: competition binding, % of control. In short, it runs like this: as §1
A further experiment deals with ACVR2B (Homo sapiens, UniProt Q13705). As to conditions: competition binding, % of control; read-out: Percent Control (100 uM Levosimendan). The method in brief: as §1
The target in another experiment is RIOK1 (Homo sapiens, UniProt Q9BRS2). To be noted: competition binding, % of control. The method in brief:
as §1

Another experiment addresses AURKC (Homo sapiens, UniProt Q9UQB9). To be noted: competition binding, % of control; read-out: Percent Control (100 uM Levosimendan). In short, it runs like this: as §1
Another experiment concerns the target ERBB3 (Homo sapiens, UniProt P21860). To be noted: competition binding, % of control; read-out: Percent Control (100 uM Levosimendan). In short, it runs like this: as §1
For experiment [2], the target named is T6, RPS6KA5(Kin.Dom.1-N-terminal) (Homo sapiens, UniProt O75582).
T6 construct: Kin.Dom.1-N-terminal
T6 sequence (O75582 whole entry): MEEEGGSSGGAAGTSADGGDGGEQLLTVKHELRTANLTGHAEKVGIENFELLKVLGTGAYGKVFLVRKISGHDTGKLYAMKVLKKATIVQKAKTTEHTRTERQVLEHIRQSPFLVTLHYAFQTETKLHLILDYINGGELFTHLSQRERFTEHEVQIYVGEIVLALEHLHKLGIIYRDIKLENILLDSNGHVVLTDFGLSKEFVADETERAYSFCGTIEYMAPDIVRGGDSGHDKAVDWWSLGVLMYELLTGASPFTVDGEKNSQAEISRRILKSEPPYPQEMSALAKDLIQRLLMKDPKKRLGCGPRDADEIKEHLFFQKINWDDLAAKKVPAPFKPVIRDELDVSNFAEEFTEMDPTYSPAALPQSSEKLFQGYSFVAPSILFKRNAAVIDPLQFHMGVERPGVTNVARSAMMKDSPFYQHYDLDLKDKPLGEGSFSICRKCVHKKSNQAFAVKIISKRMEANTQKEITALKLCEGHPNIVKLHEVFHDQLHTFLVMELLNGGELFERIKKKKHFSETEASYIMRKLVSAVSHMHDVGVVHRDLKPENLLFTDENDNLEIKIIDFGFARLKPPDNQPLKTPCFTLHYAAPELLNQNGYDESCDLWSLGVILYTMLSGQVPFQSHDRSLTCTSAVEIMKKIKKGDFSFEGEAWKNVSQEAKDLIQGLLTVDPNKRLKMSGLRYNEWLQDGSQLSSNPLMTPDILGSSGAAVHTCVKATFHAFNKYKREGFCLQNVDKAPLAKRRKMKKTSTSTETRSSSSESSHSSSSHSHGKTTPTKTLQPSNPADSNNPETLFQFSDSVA
As to conditions: competition binding, % of control; read-out: Percent Control (100 uM Levosimendan). The method in brief:
as §1

Setting [3] is: read-out: Percent Control (10 uM Levosimendan).
[4] abbreviates: read-out: Percent Control (100 uM Levosimendan).

PKN2, sequence (Q16513 whole entry): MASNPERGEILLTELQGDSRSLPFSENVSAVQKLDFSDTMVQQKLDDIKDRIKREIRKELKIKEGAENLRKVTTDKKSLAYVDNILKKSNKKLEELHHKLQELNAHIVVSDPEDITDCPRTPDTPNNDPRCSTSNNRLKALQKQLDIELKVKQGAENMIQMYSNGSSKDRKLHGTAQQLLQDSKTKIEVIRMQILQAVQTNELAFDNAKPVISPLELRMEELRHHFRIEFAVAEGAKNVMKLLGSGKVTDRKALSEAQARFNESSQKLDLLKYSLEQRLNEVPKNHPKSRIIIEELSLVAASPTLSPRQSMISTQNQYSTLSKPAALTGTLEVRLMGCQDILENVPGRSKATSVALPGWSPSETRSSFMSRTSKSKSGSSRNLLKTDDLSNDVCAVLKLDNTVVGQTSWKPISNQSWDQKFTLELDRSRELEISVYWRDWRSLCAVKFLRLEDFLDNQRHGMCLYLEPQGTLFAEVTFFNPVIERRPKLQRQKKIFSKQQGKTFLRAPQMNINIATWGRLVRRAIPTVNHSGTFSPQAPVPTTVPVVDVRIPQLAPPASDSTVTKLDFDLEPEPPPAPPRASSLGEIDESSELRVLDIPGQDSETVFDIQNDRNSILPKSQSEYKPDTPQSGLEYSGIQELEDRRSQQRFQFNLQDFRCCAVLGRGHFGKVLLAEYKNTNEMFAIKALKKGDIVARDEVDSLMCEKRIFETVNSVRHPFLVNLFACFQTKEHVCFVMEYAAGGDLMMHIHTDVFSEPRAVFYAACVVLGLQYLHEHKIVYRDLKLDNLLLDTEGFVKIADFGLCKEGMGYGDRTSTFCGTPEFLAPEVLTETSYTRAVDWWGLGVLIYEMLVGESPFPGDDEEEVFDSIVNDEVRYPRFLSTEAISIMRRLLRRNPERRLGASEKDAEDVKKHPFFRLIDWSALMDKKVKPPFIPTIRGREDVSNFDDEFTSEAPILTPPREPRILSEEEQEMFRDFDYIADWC
RIOK1, sequence (Q9BRS2 whole entry): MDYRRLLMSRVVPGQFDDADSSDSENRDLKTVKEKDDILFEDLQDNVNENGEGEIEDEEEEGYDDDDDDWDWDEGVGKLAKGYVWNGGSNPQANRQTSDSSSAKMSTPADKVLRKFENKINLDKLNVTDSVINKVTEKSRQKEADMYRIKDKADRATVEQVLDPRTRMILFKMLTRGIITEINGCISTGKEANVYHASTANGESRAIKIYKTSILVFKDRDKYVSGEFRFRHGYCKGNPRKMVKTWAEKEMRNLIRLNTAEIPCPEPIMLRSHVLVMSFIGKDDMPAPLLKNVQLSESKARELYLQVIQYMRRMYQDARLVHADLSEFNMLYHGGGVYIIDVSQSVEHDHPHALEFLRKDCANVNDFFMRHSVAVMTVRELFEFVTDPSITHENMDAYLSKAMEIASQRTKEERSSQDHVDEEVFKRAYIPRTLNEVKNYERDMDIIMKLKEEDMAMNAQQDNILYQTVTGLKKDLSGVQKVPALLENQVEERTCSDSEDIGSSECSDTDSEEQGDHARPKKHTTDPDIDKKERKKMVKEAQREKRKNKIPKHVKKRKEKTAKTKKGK
ERBB3, sequence (P21860 whole entry): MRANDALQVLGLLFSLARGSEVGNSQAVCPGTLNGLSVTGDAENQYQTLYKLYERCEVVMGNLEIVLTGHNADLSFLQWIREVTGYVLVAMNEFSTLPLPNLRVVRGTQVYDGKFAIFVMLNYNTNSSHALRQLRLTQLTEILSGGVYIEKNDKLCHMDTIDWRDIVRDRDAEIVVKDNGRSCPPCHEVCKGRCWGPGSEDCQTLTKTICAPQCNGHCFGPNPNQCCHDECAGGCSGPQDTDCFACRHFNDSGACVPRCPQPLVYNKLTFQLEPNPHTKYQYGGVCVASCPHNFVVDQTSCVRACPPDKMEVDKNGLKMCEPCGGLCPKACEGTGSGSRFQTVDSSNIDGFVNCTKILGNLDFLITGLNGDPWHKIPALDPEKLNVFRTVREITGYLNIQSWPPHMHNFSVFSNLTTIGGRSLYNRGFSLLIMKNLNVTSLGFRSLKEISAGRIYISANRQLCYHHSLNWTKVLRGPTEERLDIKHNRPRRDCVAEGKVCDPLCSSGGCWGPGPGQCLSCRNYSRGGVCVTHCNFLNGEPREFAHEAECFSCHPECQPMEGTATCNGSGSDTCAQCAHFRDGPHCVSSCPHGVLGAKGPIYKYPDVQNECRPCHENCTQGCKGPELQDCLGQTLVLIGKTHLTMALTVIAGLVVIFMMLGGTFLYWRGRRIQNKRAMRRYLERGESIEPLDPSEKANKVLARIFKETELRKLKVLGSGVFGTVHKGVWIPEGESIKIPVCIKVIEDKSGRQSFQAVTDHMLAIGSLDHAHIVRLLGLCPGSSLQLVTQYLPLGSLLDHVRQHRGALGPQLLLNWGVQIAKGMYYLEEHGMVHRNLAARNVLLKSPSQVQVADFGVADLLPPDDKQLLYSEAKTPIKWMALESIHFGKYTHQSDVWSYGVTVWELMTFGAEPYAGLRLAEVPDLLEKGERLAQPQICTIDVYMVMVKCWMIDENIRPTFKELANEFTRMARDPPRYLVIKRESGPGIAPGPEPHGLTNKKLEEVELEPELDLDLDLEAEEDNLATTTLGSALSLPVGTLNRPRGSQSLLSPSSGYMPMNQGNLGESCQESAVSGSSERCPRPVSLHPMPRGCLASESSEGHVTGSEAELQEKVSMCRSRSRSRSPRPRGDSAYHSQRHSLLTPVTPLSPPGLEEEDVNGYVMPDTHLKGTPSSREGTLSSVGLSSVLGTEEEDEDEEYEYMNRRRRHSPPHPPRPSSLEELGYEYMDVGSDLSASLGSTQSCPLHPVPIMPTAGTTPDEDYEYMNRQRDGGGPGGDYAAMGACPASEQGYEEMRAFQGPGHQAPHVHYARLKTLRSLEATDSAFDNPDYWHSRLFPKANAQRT

With `C[C@@H]1CC(=O)NN=C1c1ccc(NN=C(C#N)C#N)cc1` [levosimendan], the remaining binding at 100 µM on LTK stood at 96%; on CSNK2A2, 73%; at TIE1, 100%; at MAP4K4 it was 100%; on FLT3-autoinhibited it was 98%; on MAK, 100%. Besides, the remaining binding at 100 µM in [1] came to 95%; at DYRK2, 85%; on EPHB3, 96%; at MST3, 96%; on p38-beta it was 94%; on PKAC-alpha it was 94%. Besides, the remaining binding at 100 µM came out at 100% on ERK4; 49% on PKN2 (setting [4]); 100% on ACVR2B; 0% at RIOK1 (setting [4]); 100% on AURKC; 75% on ERBB3. In addition, the remaining binding at 100 µM in experiment [2] came to 62%. Besides, the values for the remaining binding at 10 µM on PKN2 (setting [3]) and at RIOK1 (setting [3]) were 94% and 15%, respectively.

The record behind these values is PMC6576746, “Rational discovery of dual-indication multi-target PDE/Kinase inhibitor for precision anti-cancer therapy using structural systems pharmacology” (PLoS Computational Biology, 2019).
